Source: patent US20180072666A1, “ENOYL REDUCTASE INHIBITORS WITH ANTIBACTERIAL ACTIVITY” (Novalex Therapeutics, Inc., priority 2016, published 2018)
Converted amounts (≈) assume the structure as drawn. Read-outs that look alike come from different tables or passages of the source.

How the values were obtained:
[1] = target: T1, Staphylococcus aureus FabI (SaFabI) (Staphylococcus aureus, UniProt Q6GI75); assay: biochemical; type: biochemical
T1 sequence (Q6GI75 1-256): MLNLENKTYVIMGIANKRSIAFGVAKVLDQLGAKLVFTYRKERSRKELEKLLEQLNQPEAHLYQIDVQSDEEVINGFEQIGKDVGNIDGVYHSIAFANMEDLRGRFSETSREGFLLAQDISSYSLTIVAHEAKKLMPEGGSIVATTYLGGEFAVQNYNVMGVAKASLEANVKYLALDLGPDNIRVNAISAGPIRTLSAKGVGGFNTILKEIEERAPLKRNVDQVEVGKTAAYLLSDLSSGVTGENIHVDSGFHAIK

[2] = target: Acinetobacter baumannii FabI (AbFabI) (Acinetobacter baumannii, UniProt A0ABX6CD96); assay: biochemical; type: biochemical; conditions: read-out: Enzyme inhibition or IC50 with AbFabl
[3] = tested on: S. aureus strain RN4220; assay: microbe, parasite or virus in culture; type: cell-based; conditions: Staphylococcus aureus, RN4220, read-out: MIC S. aureus RN4220 WT
[4] = tested on: E. coli tolC- (strain BW25113, efflux pump mutant); assay: microbe, parasite or virus in culture; type: cell-based; conditions: Escherichia coli, BW25113, read-out: MIC E. coli TolC-
[5] = tested on: F. tularensis (strain Utah); assay: microbe, parasite or virus in culture; type: cell-based; conditions: Francisella tularensis, read-out: MIC F. tularensis strain Utah
[6] = tested on: S. aureus strain Newman; assay: MIC determination, S. aureus Newman; type: cell-based; conditions: Staphylococcus aureus, read-out: MIC S. aureus Newman WT
[7] = tested on: E. coli strain BW25113; assay: microbe, parasite or virus in culture; type: cell-based; conditions: Escherichia coli, BW25113, read-out: MIC E. coli BW25113 WT
[8] = 200 nM enzyme, 300 μM crotonyl-coenzymeA, 200 μM NADPH, pH 5.5, read-out: Enzyme inhibition or IC50 with SaFabl
[9] = TSB media, 37° C. overnight, first clear well

SMILES	IC50 [1, 8] [µM]	IC50 [2] [µM]	MIC [3] [µg/mL]	MIC [4] [µg/mL]	MIC [5] [µg/mL]	IC50 ([2]; pH 5.5) [µM]	MIC [6] [µg/mL]	MIC [7] [µg/mL]	MIC [6, 9] [µg/mL]	IC50 [1] [µM]
O=C(Cc1c(F)cccc1Cl)N1CCC(c2ccc3c(c2)OCO3)C1 (centres unmarked)	1.8	> 100	25 (≈ 69.1 µM)	> 200	25 (≈ 69.1 µM)	–	–	–	–	–
O=C(Cc1c(F)cccc1F)N1CCC(c2ccc3c(c2)OCO3)C1 (centres unmarked)	2.3	–	> 200	> 200	> 200	54	–	–	–	–
O=C(Cc1ccccc1F)N1CCC(c2ccc3c(c2)OCO3)C1 (centres unmarked)	2.7	–	> 200	> 200	25 to 50 (≈ 76.4 to 153 µM)	32	–	–	–	–
COc1ccccc1C1CCN(C(=O)/C=C/c2ccc(NC(C)=O)nc2)C1 (centres unmarked)	3.5	–	12.5 to 25 (≈ 34.2 to 68.4 µM)	0.75 (≈ 2.05 µM)	12.5 (≈ 34.2 µM)	0.42	12.5 to 25 (≈ 34.2 to 68.4 µM)	> 200	–	–
O=C(Cc1ccccc1Cl)N1CCC(c2ccccc2)C1 (centres unmarked)	10.7	–	12.5 (≈ 41.7 µM)	–	25 (≈ 83.4 µM)	3.1	12.5 to 25 (≈ 41.7 to 83.4 µM)	> 200	–	–
O=C(Cc1ccccc1Cl)N1CCC(c2ccc3c(c2)OCO3)C1 (centres unmarked)	2.5	3.7	12.5 (≈ 36.4 µM)	–	25 (≈ 72.7 µM)	–	6.25 to 12.5 (≈ 18.2 to 36.4 µM)	> 200	–	–
CC(C)S(=O)(=O)c1ccc(CC(=O)N2CCC(c3ccc4c(c3)OCO4)C2)cc1 (centres unmarked)	–	> 100	> 200	> 200	100 (≈ 241 µM)	–	–	–	–	–
CC(=O)Nc1ccc(/C=C/C(=O)N2CCC(c3ccc4c(c3)OCO4)C2)cn1 (centres unmarked)	1.1	–	> 200	> 100	> 200	8.5	–	> 100	–	–
COc1ccc(C2CCN(C(=O)Cc3ccc(NC(C)=O)cc3)C2)cc1 (centres unmarked)	–	> 100	> 200	> 200	> 200	–	–	–	–	–
CC(=O)Nc1ccc(CC(=O)N2CCC(c3nccs3)C2)cc1 (centres unmarked)	–	> 100	> 200	> 200	> 200	–	–	–	–	–
O=C(Cc1ccccc1F)N1CCC(c2ccccc2)C1 (centres unmarked)	5	2.5	50 (≈ 176 µM)	> 200	50 (≈ 176 µM)	–	–	–	50 to 100 (≈ 176 to 353 µM)	–
COc1ccccc1C1CCN(C(=O)Cc2ccccc2Cl)C1 (centres unmarked)	0.5	0.88	12.5 to 25 (≈ 37.9 to 75.8 µM)	> 200	50 (≈ 152 µM)	–	–	–	–	–
CC(=O)Nc1ccc(CC(=O)N2CCC(c3ccccc3)C2)cc1 (centres unmarked)	–	> 100	> 200	200 (≈ 620 µM)	200 (≈ 620 µM)	–	–	–	–	–
COc1ccccc1C1CCN(C(=O)Cc2c(F)cccc2F)C1 (centres unmarked)	5.7	1.6	50 to 100 (≈ 151 to 302 µM)	> 200	50 to 100 (≈ 151 to 302 µM)	–	–	–	50 to 100 (≈ 151 to 302 µM)	–
O=C(Cc1ccccc1Cl)N1CCC(c2nccs2)C1 (centres unmarked)	6	14	50 (≈ 163 µM)	> 100	200 (≈ 652 µM)	–	–	–	–	–
O=C(Cc1ccccc1Cl)N1CCC(c2ccccn2)C1 (centres unmarked)	18.4	–	100 (≈ 332 µM)	> 200	200 (≈ 665 µM)	30.7	–	–	–	–
COc1ccccc1C1CCN(C(=O)Cc2ccccc2F)C1 (centres unmarked)	4.6	1.9	50 to 100 (≈ 160 to 319 µM)	> 200	50 to 100 (≈ 160 to 319 µM)	–	–	–	50 to 100 (≈ 160 to 319 µM)	–
O=C(Cc1cccc(F)c1F)N1CCC(c2ccc3c(c2)OCO3)C1 (centres unmarked)	5.5	–	100 (≈ 290 µM)	> 200	25 (≈ 72.4 µM)	13.7	–	–	–	–
CC(=O)Nc1ccc(CC(=O)N2CCC(c3ccc4c(c3)OCO4)C2)cc1 (centres unmarked)	–	> 100	> 200	> 200	> 200	–	–	–	–	–
O=C(Cc1cccc(F)c1F)N1CCC(c2ccccc2)C1 (centres unmarked)	7.3	9.3	50 (≈ 166 µM)	> 200	25 to 50 (≈ 83 to 166 µM)	–	–	–	50 to 100 (≈ 166 to 332 µM)	–
COc1ccccc1C1CCN(C(=O)Cc2ccc(NC(C)=O)cc2)C1 (centres unmarked)	–	> 100	> 200	> 200	> 200	–	–	–	–	–
CC(=O)Nc1ccc(/C=C/C(=O)N2CCC(c3ccccc3)C2)cn1 (centres unmarked)	1.2	–	> 200	12.5 (≈ 37.3 µM)	> 200	0.47	–	> 200	–	–
COc1ccc(C2CCN(C(=O)Cc3ccccc3Cl)C2)cc1 (centres unmarked)	12.5	–	100 (≈ 303 µM)	100 (≈ 303 µM)	12.5 (≈ 37.9 µM)	–	–	–	–	–
CC(=O)Nc1ccc(/C=C/C(=O)N2CCC(c3ccccn3)C2)cn1 (centres unmarked)	28.4	5	> 100	100 (≈ 297 µM)	> 100	–	–	> 100	–	–
O=C(Cc1c(F)cccc1F)N1CCC(c2ccccc2)C1 (centres unmarked)	1.9	6.9	50 (≈ 166 µM)	> 200	50 (≈ 166 µM)	–	–	–	50 to 100 (≈ 166 to 332 µM)	–
COc1ccc(C2CCN(C(=O)/C=C/c3ccc(NC(C)=O)nc3)C2)cc1 (centres unmarked)	–	> 100	> 200	> 200	> 200	–	–	–	–	3.55
CC(=O)Nc1ccc(/C=C/C(=O)N2CCC(c3nccs3)C2)cn1 (centres unmarked)	4.5	10 to 20	> 100	> 100	> 100	–	–	> 100	–	–
COc1ccccc1C1CCN(C(=O)/C=C/c2ccc(NC(C)=O)cc2)C1 (centres unmarked)	–	–	> 200	> 200	> 200	–	–	–	–	–
COc1ccccc1C1CCN(C(=O)Cc2cccc(F)c2F)C1 (centres unmarked)	3	7.4	100 (≈ 302 µM)	> 200	50 (≈ 151 µM)	–	–	–	–	–
